± gives the expanded uncertainty stated by the source.
experiment: activity coefficient (dimensionless); of the first substance listed, at infinite dilution; xn = mol fraction of the nth substance listed; conditions: 323.15 K; 101 kPa; Liquid; Chromatography; x1 = 0

Row | Structure (SMILES) | activity coefficient
1 | ClC(Cl)(Cl)Cl [tetrachloromethane] + C[n+]1ccn(CCCB(O)O)c1.[Br-] | 21.2 ± 1.4
2 | c1ccsc1 [thiophene] + C=CC[n+]1ccn(CCCCCCCC)c1.[Br-] | 0.93 ± 0.06
3 | c1ccsc1 [thiophene] + C=CC[n+]1ccn(CCCCCCCCCC)c1.[Br-] | 0.89 ± 0.06
4 | c1ccsc1 [thiophene] + C=CC[n+]1ccn(CCCCCCCCCCCC)c1.[Br-] | 0.77 ± 0.05
5 | c1ccsc1 [thiophene] + C=CCn1cc[n+](C)c1.[Br-] | 1.48 ± 0.1
6 | c1ccsc1 [thiophene] + CCCCCCCCCCCC[n+]1ccn(CCCB(O)O)c1.[Br-] | 0.9 ± 0.06
7 | c1ccsc1 [thiophene] + CCCCCCCCCC[n+]1ccn(CCCB(O)O)c1.[Br-] | 0.79 ± 0.05
8 | c1ccsc1 [thiophene] + CCCCCCCC[n+]1ccn(CCCB(O)O)c1.[Br-] | 1.2 ± 0.08
9 | c1ccsc1 [thiophene] + C[n+]1ccn(CCCB(O)O)c1.[Br-] | 19.4 ± 1.3
10 | Cc1ccccc1 [toluene] + C=CC[n+]1ccn(CCCCCCCC)c1.[Br-] | 1.92 ± 0.13
11 | Cc1ccccc1 [toluene] + C=CC[n+]1ccn(CCCCCCCCCC)c1.[Br-] | 1.85 ± 0.12
12 | Cc1ccccc1 [toluene] + C=CC[n+]1ccn(CCCCCCCCCCCC)c1.[Br-] | 1.38 ± 0.09
13 | Cc1ccccc1 [toluene] + C=CCn1cc[n+](C)c1.[Br-] | 6.19 ± 0.42
14 | Cc1ccccc1 [toluene] + CCCCCCCCCCCC[n+]1ccn(CCCB(O)O)c1.[Br-] | 3.36 ± 0.23
15 | Cc1ccccc1 [toluene] + CCCCCCCCCC[n+]1ccn(CCCB(O)O)c1.[Br-] | 1.8 ± 0.12
16 | Cc1ccccc1 [toluene] + CCCCCCCC[n+]1ccn(CCCB(O)O)c1.[Br-] | 2.41 ± 0.16
17 | Cc1ccccc1 [toluene] + C[n+]1ccn(CCCB(O)O)c1.[Br-] | 38.8 ± 2.6
18 | ClC(Cl)Cl [trichloromethane] + C=CC[n+]1ccn(CCCCCCCC)c1.[Br-] | 0.14 ± 0.03
19 | ClC(Cl)Cl [trichloromethane] + C=CC[n+]1ccn(CCCCCCCCCC)c1.[Br-] | 0.13 ± 0.03
20 | ClC(Cl)Cl [trichloromethane] + C=CC[n+]1ccn(CCCCCCCCCCCC)c1.[Br-] | 0.12 ± 0.03
21 | ClC(Cl)Cl [trichloromethane] + C=CCn1cc[n+](C)c1.[Br-] | 0.25 ± 0.03
22 | ClC(Cl)Cl [trichloromethane] + CCCCCCCCCCCC[n+]1ccn(CCCB(O)O)c1.[Br-] | 0.19 ± 0.03
23 | ClC(Cl)Cl [trichloromethane] + CCCCCCCCCC[n+]1ccn(CCCB(O)O)c1.[Br-] | 0.12 ± 0.03
24 | ClC(Cl)Cl [trichloromethane] + CCCCCCCC[n+]1ccn(CCCB(O)O)c1.[Br-] | 0.23 ± 0.03
25 | ClC(Cl)Cl [trichloromethane] + C[n+]1ccn(CCCB(O)O)c1.[Br-] | 3.01 ± 0.2

Reference: the NIST ThermoML archive (doi:10.1021/je060033f)
